Data on two compounds can be found in ChEMBL document CHEMBL2016457, “Discovery of potent and orally bioavailable 17β-hydroxysteroid dehydrogenase type 3 inhibitors” (Bioorg Med Chem, 2012).

Data set [1] concerns Rattus norvegicus. Kind of data set: Inhibition of LH-RH agonist leuprorelin-induced testosterone steroidogenesis in Sprague-Dawley rat at 100 mg/kg, po administered 1 hr prior leuprorelin-induction measured up to 240 mins by GC/MS analysis relative to CB7630. The class given is functional.
Data set [2] deals with Rattus norvegicus. Kind of data set: Oral bioavailability in Sprague-Dawley rat assessed as 5-(3,5-Dichloro-4-hydroxybenzylidene)-3-(4-methoxyphenyl)-2-thioxo-1,3-oxazolidin-4-one concentration at 10 mg/kg. The class given is ADME, organism-based. The conditions noted are these: in vivo.
Data set [3] deals with Rattus norvegicus. Kind of data set: AUC (0 to 24 hrs) in Sprague-Dawley rat assessed as 5-(3,5-Dichloro-4-hydroxybenzylidene)-3-(4-methoxyphenyl)-2-thioxo-1,3-oxazolidin-4-one concentration at 10 mg/kg, po. The class given is ADME, organism-based, Plasma. The note with it: in vivo. Further details: time < 24 hr, dose 10 mg/kg, route oral.
Data set [4] deals with Rattus norvegicus. Kind of data set: Inhibition of LH-RH agonist leuprorelin-induced testosterone steroidogenesis in Sprague-Dawley rat drug administered po 1 hr prior leuprorelin-induction measured up to 240 mins by GC/MS analysis. The class given is functional, organism-based.
Data set [5] relates to Rattus norvegicus. Kind of data set: Cmax in Sprague-Dawley rat assessed as 5-(3,5-Dichloro-4-hydroxybenzylidene)-3-(4-methoxyphenyl)-2-thioxo-1,3-oxazolidin-4-one concentration at 10 mg/kg, po. The class given is ADME, organism-based. The conditions noted are these: in vivo. Details: dose 10 mg/kg, route oral.
In data set [6] the target is T1, Glucocorticoid receptor (Homo sapiens) (UniProt P04150).
T1 sequence (whole entry): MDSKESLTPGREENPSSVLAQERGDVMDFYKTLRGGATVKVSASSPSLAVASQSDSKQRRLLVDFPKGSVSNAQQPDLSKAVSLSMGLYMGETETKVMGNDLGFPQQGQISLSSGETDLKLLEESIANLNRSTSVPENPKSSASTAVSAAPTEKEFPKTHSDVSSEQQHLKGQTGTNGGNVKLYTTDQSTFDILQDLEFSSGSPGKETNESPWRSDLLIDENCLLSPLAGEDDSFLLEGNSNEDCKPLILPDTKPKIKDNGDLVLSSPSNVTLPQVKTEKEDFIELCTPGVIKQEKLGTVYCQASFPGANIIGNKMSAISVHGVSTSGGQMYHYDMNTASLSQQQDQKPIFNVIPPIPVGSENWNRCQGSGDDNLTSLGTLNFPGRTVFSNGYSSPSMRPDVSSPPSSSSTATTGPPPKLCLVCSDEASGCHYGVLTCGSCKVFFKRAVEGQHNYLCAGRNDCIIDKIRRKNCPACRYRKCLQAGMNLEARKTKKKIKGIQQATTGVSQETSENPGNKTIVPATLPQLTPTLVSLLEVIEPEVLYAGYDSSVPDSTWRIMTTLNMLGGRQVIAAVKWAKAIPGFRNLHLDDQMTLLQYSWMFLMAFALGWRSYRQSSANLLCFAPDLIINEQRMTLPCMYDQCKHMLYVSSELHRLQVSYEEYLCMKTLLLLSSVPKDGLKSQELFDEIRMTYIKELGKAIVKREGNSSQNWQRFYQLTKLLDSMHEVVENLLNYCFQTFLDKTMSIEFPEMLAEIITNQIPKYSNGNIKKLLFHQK
Kind of data set: Agonist activity at human Glucocorticoid receptor expressed in human HeLa cells assessed as DHT-induced response after 40 hrs by luciferase/beta-galactosidase-based reporter gene assay. Type of data set: functional, cell-based.

For data set [7], the target named is T1, Glucocorticoid receptor (Homo sapiens). Kind of data set: Antagonist activity at human GR receptor expressed in human HeLa cells assessed as inhibition of DHT-induced response after 40 hrs by luciferase/beta-galactosidase-based reporter gene assay. The class given is functional, cell-based. (In general: In a reporter assay the amount or activity of a reporter protein is the signal.)

For data set [8], the system named is Rattus norvegicus. Kind of data set: Inhibition of LH-RH agonist leuprorelin-induced testosterone steroidogenesis in Sprague-Dawley rat at 100 mg/kg, po administered 1 hr prior leuprorelin-induction measured after 240 mins by GC/MS analysis relative to control. Details: scale not given: the % may be the effect or the level left.
The test system of data set [9] is Rattus norvegicus. Kind of data set: Tmax in Sprague-Dawley rat assessed as 5-(3,5-Dichloro-4-hydroxybenzylidene)-3-(4-methoxyphenyl)-2-thioxo-1,3-oxazolidin-4-one concentration at 10 mg/kg, po. The class given is ADME, organism-based. Details: dose 10 mg/kg, route oral. The conditions noted are these: in vivo.
Data set [10] can be described thus: Oral bioavailability in Sprague-Dawley rat at 10 mg/kg. Type of data set: ADME, organism-based. The note with it: in vivo.
The nature of data set [11]: AUC (0 to 24 hrs) in Sprague-Dawley rat at 10 mg/kg, po. The class given is ADME, organism-based. Further details: time < 24 hr, dose 10 mg/kg, route oral. The conditions noted are these: plasma.
In data set [12] the target is T2, 17-beta-hydroxysteroid dehydrogenase type 3 (Homo sapiens, UniProt P37058).
T2 sequence (P37058 whole entry): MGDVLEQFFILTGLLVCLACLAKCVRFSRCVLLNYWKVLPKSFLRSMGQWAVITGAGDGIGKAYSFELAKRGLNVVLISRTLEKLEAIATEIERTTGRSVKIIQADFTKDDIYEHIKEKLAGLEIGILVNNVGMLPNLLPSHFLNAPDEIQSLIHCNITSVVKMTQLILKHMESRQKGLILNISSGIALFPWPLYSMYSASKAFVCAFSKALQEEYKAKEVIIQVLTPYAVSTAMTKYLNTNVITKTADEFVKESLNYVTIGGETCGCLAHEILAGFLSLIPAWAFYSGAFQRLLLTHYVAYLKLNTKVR
Description: Inhibition of human recombinant 17-beta-HSD3 expressed in human HeLa cells using androstenedione as substrate preincubated for 30 mins prior substrate addition measured after 120 mins by spectrophotometry

A short description of data set [13]: Tmax in Sprague-Dawley rat at 10 mg/kg, po. The class given is ADME, organism-based. Details: dose 10 mg/kg, route oral. The conditions noted are these: in vivo.
Data set [14] is described as follows: Cmax in Sprague-Dawley rat at 10 mg/kg, po. The class given is ADME, organism-based. Further details: dose 10 mg/kg, route oral. The note with it: in vivo.

For orientation: AUC means the area under the concentration-time curve, a measure of exposure. One may read the Cmax as the highest concentration seen after dosing. A word on the Tmax: it is the time at which the peak concentration occurs. A word on the bioavailability: it is the share of a dose that reaches the circulation, judged against a reference dose that is usually intravenous. A word on the AUC(0-t): it is exposure summed from dosing to a finite time, without extrapolation to infinity. Broadly, the IC50 is the concentration that gives 50% inhibition.

Calls of active or inactive are those of the source. The rule behind the calls is not given here.

Consider `COc1ccc(N2C(=O)/C(=C/c3cc(Cl)c(OP(=O)(O)O)c(Cl)c3)OC2=S)cc1`, for which the “fold change (FC)” value in data set [1] was 2. Besides, the F in data set [2] amounted to 35.1%. Also, the AUC in [3] stood at 18.8 µg·h/mL. Moreover, in [4], the inhibition entry was “Dose-dependent effect”. Further, the Cmax in [5] amounted to 5.25 µg/mL. In addition, the result in [6] and in [7] was inactive. Moreover, the Activity in [8] stood at 10%. The time of peak concentration (Tmax) in data set [9] is 1 h.

Regarding `COc1ccc(N2C(=O)/C(=C/c3cc(Cl)c(O)c(Cl)c3)OC2=S)cc1`, the bioavailability in [10] worked out at 5.5%. Moreover, the AUC(0-t) at 24 h in [11] came to 4000 ng·h/mL. In addition, the IC50 in [12] amounted to 12 nM. Also, the result in data set [6] and in data set [7] was inactive. For the same compound, the Tmax in data set [13] is 1 h. In addition, the Cmax in data set [14] was 400 ng/mL.
